# From patent US4778797A, “Organo-silicon compounds, process for the manufacture of same, and anti-tumor agent comprising the compound” (Sanwa Kagaku Kenkyusho Co., Ltd., priority 1984, dated 1988)
# Read-outs that look alike come from different tables or passages of the source.
# Columns and labels:
# L-1210 leukemia = assay: Anti-tumor action to L-1210 leukemia; type: in vivo, BDF1 female mice; conditions: Mus musculus, L1210, oral; for ILS at 250 mg/kg/day: 250 mg/kg/day × 3 (1st, 5th, 9th day); for ILS at 500 mg/kg/day: 500 mg/kg/day × 3 (1st, 5th, 9th day)
# Method: L-1210 leukemia cell (1×10^5 cells) was transplanted in a abdominal cavity of BDF1 female mice (20-21 g, age of about 5 weeks), and each of testing compounds was orally dosed in 250 mg/kg or 500 mg/kg at 1st, 5th and 9th day after the transplantation to check days of life of the mice. [formula]
# Lewis lung carcinoma = assay: Anti-tumor action to Lewis lung carcinoma (primary tumor weight and metastasis); type: in vivo, BDF1 mice; conditions: Mus musculus, po, 504 h
# Excerpt: Lewis lung carcinoma (1×10^5 cells) was transplanted under skin of right ear of BDF1 mice (age of about 5 weeks), and each of testing compounds was orally dosed 10 times from 1st to 10th day after the transplantation. At 21st day after the transplantation, the mice were killed to measure a weight of the primarly tumor and to extract a lung. The lung was fixed in a conventional manner to count a number of metastasis on cancerous cells with use of a stereomicroscope having a low magnification. An anti-tumor action of each compound was expressed with an inhibition in weight of the primarly tumor and an inhibition of the metastasis.
# KB cells = assay: Suppression of KB cell proliferation in vitro; type: cell-based; conditions: Homo sapiens, 72 h, 3 days exposure, Trypan Blue dye-exclusion, read-out: KB IC50 (50% inhibition density to tumor cell proliferation)
# Method: In a cultivation device (5% CO2, 37° C.), KB cells (1×10^4 cells) were cultivated for 24 hours in a culture tube with 1 ml of Eagle culture medium added 10% ox serum, the used culture medium was thrown away to change with a fresh culture medium (0.9 ml), and then 0.1 ml of a similar culture fluid containing each testing compound prepared by the process as described in the Examples was added to cultivate the same for further 3 days. Thereafter, living cells were dyed with Tripan Blue and measured same through a dye-exclusion method.
# A control was treated in a manner similar to the above, except that a culture fluid containing no compound of the invention was added.
# 50% inhibition density (IC50) to the tumor cell proliferation was decided through the tests between the testing group and the control group to obtain results as shown in following Table 1.
# Colon-38 carcinoma = assay: Anti-tumor action to Colon-38 carcinoma; type: in vivo, BDF1 mice; conditions: oral, tumor weight at 28th day
# Method: 0.02 ml of 10(W/V)% cell suspension prepared from a solid cancer cell (Colon-38 carcinoma) were transplanted under skin of BDF1 mice (20-21 g, age of about 5 weeks), and each of testing compounds was orally dosed to the mice at 1st, 5th and 9th day after the transplantation. A major and minor axes of the cancerous tumor were measured at 11th, 14th, 21st, 25th and 28th day after the transplantation to calcurate volume of the tumor in accordance with the following.
# At 28th day from the transplantation, the mice were killed and each of the cancerous tumors was extracted to measure its weight and to determine an inhibitation ratio in comparison with a non-treated control group.
# B-16 melanoma = assay: Anti-tumor action to B-16 melanoma; type: in vivo, BDF1 female mice; conditions: oral, tumor weight at 21st day; for inhibition in vivo at 100 mg/kg/day: 100 mg/kg/day × 3; for inhibition in vivo at 200 mg/kg/day: 200 mg/kg/day × 3; for inhibition in vivo at 400 mg/kg/day: 400 mg/kg/day × 3
# Excerpt: B-16 melanoma (1×10^5 cells) was transplanted under skin of BDF1 female mice (age of about 5 weeks), and each of testing compounds was orally dosed at 1st, 5th and 9th day after the transplantation. At 21st day after the transplantation, the mice were killed to measure a weight of the cancerous tumor and to finally determine an inhibition ratio.
# [1] = Mus musculus, B16, 504 h, 125 mg/kg/day × 3, read-out: B-16 melanoma Inhibition ratio
# [2] = Mus musculus, B16, 504 h, read-out: B-16 melanoma Inhibition ratio
Structure (SMILES),ILS at 250 mg/kg/day (L-1210 leukemia; read-out: L-1210 ILS),ILS at 250 mg/kg/day (L-1210 leukemia; read-out: L-1210 Judgement),ILS at 500 mg/kg/day (L-1210 leukemia; read-out: L-1210 ILS),ILS at 500 mg/kg/day (L-1210 leukemia; read-out: L-1210 Judgement),IC50 (KB cells),B-16 melanoma Inhibition ratio (B-16 melanoma; 125 mg/kg/day × 3),B-16 melanoma Inhibition ratio (B-16 melanoma; 250 mg/kg/day × 3),other results
"CCCCCCCC[Si](C)(C)CCSCCNC(=O)n1cc(F)c(=O)[nH]c1=O [Example 4, N-[2-[[2-(Dimethyloctylsilyl)ethyl]thio]ethyl]-5-fluoro-3,4-dihydro-2,4-dioxo-1(2H)-pyrimidinecarboxamide]",12%,< 25%,38%,25 to 50%,20 µg/mL,–,–,"inhibition in vivo at 32 mg/kg/day (Lewis lung carcinoma; 32 mg/kg/day × 10, 21st day, read-out: Inhibition Ratio weight LLC): 4.6%; inhibition in vivo at 32 mg/kg/day (Lewis lung carcinoma; 32 mg/kg/day × 10, lung, 21st day, read-out: Inhibition Ratio metastasis): 76.2%; inhibition in vivo at 64 mg/kg/day (Lewis lung carcinoma; 64 mg/kg/day × 10, 21st day, read-out: Inhibition Ratio weight LLC): 18%; inhibition in vivo at 64 mg/kg/day (Lewis lung carcinoma; 64 mg/kg/day × 10, lung, 21st day, read-out: Inhibition Ratio metastasis): 97.5%; colon-38 Inhibition ratio (Colon-38 carcinoma; 345 mg/kg/day × 3): 80.0%"
"C[Si](CCSCCNC(=O)n1cc(F)c(=O)[nH]c1=O)(c1ccccc1)c1ccccc1 [Example 7, 5-Fluoro-3,4-dihydro-N-[2-[[2-(methyldiphenylsilyl)ethyl]thio]ethyl]-2,4-dioxo-1(2H)-pyrimidinecarboxamide]",11%,< 25%,11%,< 25%,4 µg/mL,–,–,"inhibition in vivo at 34 mg/kg/day (Lewis lung carcinoma; 34 mg/kg/day × 10, 21st day, read-out: Inhibition Ratio weight LLC): 31%; inhibition in vivo at 34 mg/kg/day (Lewis lung carcinoma; 34 mg/kg/day × 10, lung, 21st day, read-out: Inhibition Ratio metastasis): 67.1%; inhibition in vivo at 68 mg/kg/day (Lewis lung carcinoma; 68 mg/kg/day × 10, 21st day, read-out: Inhibition Ratio weight LLC): 25%; inhibition in vivo at 68 mg/kg/day (Lewis lung carcinoma; 68 mg/kg/day × 10, lung, 21st day, read-out: Inhibition Ratio metastasis): 87.7%; inhibition in vivo at 366 mg/kg/day (Colon-38 carcinoma; Mus musculus, 672 h, 366 mg/kg/day × 3, read-out: colon-38 Inhibition ratio): 32.2%"
"CC(C)[Si](C)(C)CCSCCCNC(=O)n1cc(F)c(=O)[nH]c1=O [Example 9, 5-Fluoro-3,4-dihydro-N-[3-[[2-(isopropyldimethylsilyl)ethyl]thio]propyl]-2,4-dioxo-1(2H)-pyrimidinecarboxamide]",45%,25 to 50%,80%,50 to 100%,15 µg/mL,17.6%,19.4%,colon-38 Inhibition ratio (Colon-38 carcinoma; 338 mg/kg/day × 3): 98.4%
"CC(C)[Si](C)(C)CCCSCCCNC(=O)n1cc(F)c(=O)[nH]c1=O [Example 11, 5-Fluoro-3,4-dihydro-N-[3-[[3-(isopropyldimethylsilyl)propyl]thio]propyl]-2,4-dioxo-1(2H)-pyrimidinecarboxamide]",18%,< 25%,81%,50 to 100%,13 µg/mL,32.8%,45.7%,colon-38 Inhibition ratio (Colon-38 carcinoma; 350 mg/kg/day × 3): 90.3%
"CC(C)[Si](C)(C)CCCSCCNC(=O)n1cc(F)c(=O)[nH]c1=O [Example 12, 5-Fluoro-3,4-dihydro-N-[2-[[3-(isopropyldimethylsilyl)propyl]thio]ethyl]-2,4-dioxo-1(2H)-pyrimidinecarboxamide]",24%,< 25%,70%,50 to 100%,15 µg/mL,–,–,"inhibition in vivo at 125 mg/kg/day (B-16 melanoma; [1]): 34.2%; inhibition in vivo at 250 mg/kg/day (B-16 melanoma; Mus musculus, B16, 504 h, 250 mg/kg/day × 3, read-out: B-16 melanoma Inhibition ratio): 37.9%; inhibition in vivo at 338 mg/kg/day (Colon-38 carcinoma; Mus musculus, 672 h, 338 mg/kg/day × 3, read-out: colon-38 Inhibition ratio): 97.3%"
"CC(C)(C)[Si](C)(C)CCCSCCNC(=O)n1cc(F)c(=O)[nH]c1=O [Example 13, N-[2-[[3-(t-Butyldimethylsilyl)propyl]thio]ethyl]-5-fluoro-3,4-dihydro-2,4-dioxo-1(2H)-pyrimidinecarboxamide]",10%,< 25%,67%,50 to 100%,13 µg/mL,–,43.1%,inhibition in vivo at 125 mg/kg/day (B-16 melanoma; [1]): 38%; colon-38 Inhibition ratio (Colon-38 carcinoma; 311 mg/kg/day × 3): 81.0%
"CC(C)(C)[Si](C)(C)CCCSCCCNC(=O)n1cc(F)c(=O)[nH]c1=O [Example 14, N-[3-[[3-(t-Butyldimethylsilyl)propyl]thio]propyl]-5-fluoro-3,4-dihydro-2,4-dioxo-1(2H)-pyrimidinecarboxamide]",19%,< 25%,68%,50 to 100%,–,55.2%,46.3%,colon-38 Inhibition ratio (Colon-38 carcinoma; 323 mg/kg/day × 3): 90.1%
"CCCC[Si](C)(C)CCCSCCCNC(=O)n1cc(F)c(=O)[nH]c1=O [Example 15, N-[3-[[3-(Butyldimethylsilyl)propyl]thio]propyl]-5-fluoro-3,4-dihydro-2,4-dioxo-1(2H)-pyrimidinecarboxamide]",26%,25 to 50%,62%,50 to 100%,–,69.5%,88.5%,colon-38 Inhibition ratio (Colon-38 carcinoma; 323 mg/kg/day × 3): 92.3%
"C[Si](C)(CCCSCCCNC(=O)n1cc(F)c(=O)[nH]c1=O)c1ccccc1 [Example 16, N-[3-[[3-(Dimethylphenylsilyl)propyl]thio]propyl]-5-fluoro-3,4-dihydro-2,4-dioxo-1(2H)-pyrimidinecarboxamide]",23%,< 25%,86%,50 to 100%,–,82.2%,70.5%,colon-38 Inhibition ratio (Colon-38 carcinoma; 339 mg/kg/day × 3): 97.9%
"CCCC[Si](C)(C)CCSCCCNC(=O)n1cc(F)c(=O)[nH]c1=O [Example 17, N-[3-[[2-(Butyldimethylsilyl)ethyl]thio]propyl]-5-fluoro-3,4-dihydro-2,4-dioxo-1(2H)-pyrimidinecarboxamide]",–,–,–,–,–,–,–,"inhibition in vivo at 100 mg/kg/day (B-16 melanoma; [2]): 54.3%; inhibition in vivo at 200 mg/kg/day (B-16 melanoma; [2]): 16.3%; inhibition in vivo at 400 mg/kg/day (B-16 melanoma; [2]): 34.8%; inhibition in vivo at 312 mg/kg/day (Colon-38 carcinoma; Mus musculus, 672 h, 312 mg/kg/day × 3, read-out: colon-38 Inhibition ratio): 97.4%"
"C[Si](C)(CCSCCCNC(=O)n1cc(F)c(=O)[nH]c1=O)c1ccccc1 [Example 18, N-[3-[[2-(Dimethylphenylsilyl)ethyl]thio]propyl]-5-fluoro-3,4-dihydro-2,4-dioxo-1(2H)-pyrimidinecarboxamide]",–,–,–,–,–,–,–,"inhibition in vivo at 100 mg/kg/day (B-16 melanoma; [2]): 55.2%; inhibition in vivo at 200 mg/kg/day (B-16 melanoma; [2]): 46.7%; inhibition in vivo at 400 mg/kg/day (B-16 melanoma; [2]): 29.6%; inhibition in vivo at 328 mg/kg/day (Colon-38 carcinoma; Mus musculus, 672 h, 328 mg/kg/day × 3, read-out: colon-38 Inhibition ratio): 71.3%"
